Data from patent US11919902B2, “Aryl-bipyridine amine derivatives as phosphatidylinositol phosphate kinase inhibitors” (HiberCell, Inc., priority 2017, dated 2024).
pIC50: −log10 of the molar value.

What was measured:
GST tagged PIP4KtypeIIA = target: T1, GST tagged PIP4KtypeIIA (Homo sapiens, UniProt P48426); assay: ADP-glo kinase assay PIP4K 2A (PIP4KtypeIIA inhibition assay); format: biochemical; conditions: Table 3; compounds listed under IC50 range headings; 10 uM ATP, 0.5 nM PIP4KIIA
T1 construct: made in house; host or cells: E. coli
T1 sequence (P48426 1-406): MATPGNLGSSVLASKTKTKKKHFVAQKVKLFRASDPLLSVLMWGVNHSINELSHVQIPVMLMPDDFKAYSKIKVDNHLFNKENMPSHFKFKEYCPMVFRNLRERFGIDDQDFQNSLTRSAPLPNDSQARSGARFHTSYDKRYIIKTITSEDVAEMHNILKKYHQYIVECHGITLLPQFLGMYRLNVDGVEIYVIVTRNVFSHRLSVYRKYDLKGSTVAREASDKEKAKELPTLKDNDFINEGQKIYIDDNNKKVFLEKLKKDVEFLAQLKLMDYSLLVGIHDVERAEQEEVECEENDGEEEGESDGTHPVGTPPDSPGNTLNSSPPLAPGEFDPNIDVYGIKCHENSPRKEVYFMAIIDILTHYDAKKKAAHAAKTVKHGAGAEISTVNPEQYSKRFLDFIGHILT
Procedure, shortened: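 E. coli-expressed GST-PIP4KtypeIIA (0.5 nM final) was preincubated 1 h at 27 °C with compound (up to 4.8 μM, 5% DMSO) in PI5P/DOPE lipid in 50 mM HEPES pH 7.3 with 10 mM MgCl2. The reaction was started with 10 μM ATP (final) and run 1 h. ADP was read by ADP-Glo luminescence via a calibration curve, and IC50 was taken from % residual activity.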

[1] = target: T2, PIP4K2A (full length protein, SignalChem) (Homo sapiens, UniProt P48426); assay: Kinase Assay PIP4K2 A (Sprint); ADP-Glo biochemical assay; conditions: Table 2; compounds listed under IC50 range headings
T2 construct: 4 nM PIP4K2A (full length protein, SignalChem); purchased SignalChem
T2 sequence (P48426 1-406): T1 sequence (P48426 1-406)
Procedure, shortened: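 Compounds (10-point, 3-fold dilutions) were pre-incubated 15 min at RT with an enzyme/substrate mix of 4 nM full-length PIP4K2A and 100 μM PI(5)P diC8 in 20 mM MOPS pH 7.2, 25 mM MgCl2, 0.005% Tween 20. A 60 μM ATP solution was added, reaction 1 h RT; ADP read by ADP-Glo luminescence, IC50 fitted from % inhibition vs DMSO.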

GST tagged PIP4KtypeIIB = target: T3, GST tagged PIP4KtypeIIB (Homo sapiens, UniProt P78356); assay: Trans-FI P kinase assay PIP4K2B (PIP4KtypeIIB inhibition assay); format: biochemical; conditions: Table 4; compounds listed under IC50 range headings; 100 uM GTP, 5 nM PIP4KIIB; read-out: Trans-FI P kinase assays: PIP4K2B IC50
T3 construct: made in house; host or cells: E. coli
T3 sequence (P78356 1-416): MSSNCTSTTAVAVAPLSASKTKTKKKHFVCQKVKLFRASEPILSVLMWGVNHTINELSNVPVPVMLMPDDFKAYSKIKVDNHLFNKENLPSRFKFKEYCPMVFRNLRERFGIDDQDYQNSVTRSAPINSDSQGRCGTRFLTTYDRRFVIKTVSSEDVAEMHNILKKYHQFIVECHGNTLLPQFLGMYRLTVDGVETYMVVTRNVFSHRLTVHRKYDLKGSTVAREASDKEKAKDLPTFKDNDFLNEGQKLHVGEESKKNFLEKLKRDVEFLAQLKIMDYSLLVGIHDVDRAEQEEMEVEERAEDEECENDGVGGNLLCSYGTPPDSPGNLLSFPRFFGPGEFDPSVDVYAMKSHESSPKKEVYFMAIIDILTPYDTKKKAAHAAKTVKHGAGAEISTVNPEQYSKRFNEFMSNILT
Procedure, shortened: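 Purified GST-PIP4KIIB (5 nM final), 1 h preincubation with compound at 27 C, then 2 h reaction with 100 uM GTP and 80 uM PI5P plus DOPE carrier lipid in pH 7.3 HEPES/MgCl2/Triton buffer with 5% DMSO. GDP read by Transcreener FI fluorescence against a calibration curve; IC50 from % no-inhibitor activity vs log concentration.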

SMILES	pIC50 (GST tagged PIP4KtypeIIA)	pIC50 [1]	pIC50 (GST tagged PIP4KtypeIIB)
Nc1ncc(-c2ccnc3[nH]c(C(=O)NCc4ccccc4)cc23)cc1-c1ccc(C(=O)NCc2ccccc2)cn1 [Example 221, 4-(2′-amino-5-(benzylcarbamoyl)-[2,3′-bipyridin]-5′-yl)-N-benzyl-1H-pyrrolo[2,3-b]pyridine-2-carboxamide]	< 5.30	> 5.30	5.60 to 6.00
CN(C)C(=O)c1ccc(-c2cncc(-c3ccnc(C(=O)N(C)C)c3)c2)cc1 [Example 9, 5-(4-(dimethylcarbamoyl)phenyl)-N,N-dimethyl-[3,4′-bipyridine]-2′-carboxamide]	< 5.30	> 5.30	< 5.30
CN1CCn2c(cc3c(-c4cncc(-c5ccc(N6CCCCC6=O)cc5)c4)ccnc32)C1=O [Example 346, 7-methyl-4-(5-(4-(2-oxopiperidin-1-yl)phenyl)pyridin-3-yl)-8,9-dihydropyrido[3′,2′:4,5]pyrrolo[1,2-a]pyrazin-6(7H)-one]	6.00 to 7.00	6.00 to 7.00	6.00 to 7.00
CN(C)C(=O)c1ccc(-c2cc(-c3cc(N)ncn3)cnc2N)nc1 [Example 217, 2′-amino-5′-(6-aminopyrimidin-4-yl)-N,N-dimethyl-[2,3′-bipyridine]-5-carboxamide]	6.00 to 7.00	6.00 to 7.00	6.00 to 7.00
O=C1CCCN1c1ccc(-c2cncc(-c3ncnc4n[nH]cc34)c2)cc1 [Example 223, 1-(4-(5-(2H-pyrazolo[3,4-d]pyrimidin-4-yl)pyridin-3-yl)phenyl)pyrrolidin-2-one]	6.00 to 7.00	6.00 to 7.00	6.00 to 7.00
CN(C)C(=O)c1cnc2c(c1)c(-c1cncc(-c3ccc(N4CCCC4=O)cc3)c1)nn2C [Example 231, N,N,1-trimethyl-3-(5-(4-(2-oxopyrrolidin-1-yl)phenyl)pyridin-3-yl)-1H-pyrazolo[3,4-b]pyridine-5-carboxamide]	6.00 to 7.00	6.00 to 7.00	5.60 to 6.00
CC(O)c1cnc2c(c1)c(-c1cncc(-c3ccc(N4CCCC4=O)cc3)c1)cn2C (stereo not drawn) [Example 62, 1-(4-(5-(5-(1-hydroxyethyl)-1-methyl-1H-pyrrolo[2,3-b]pyridin-3-yl)pyridin-3-yl)phenyl)pyrrolidin-2-one]	6.00 to 7.00	7.00 to 8.30	5.60 to 6.00
CN(C)C(=O)c1ccc(-c2cc(-c3ccnc(CNC(=O)c4cccc(NC(=O)OC(C)(C)C)c4)c3)cnc2N)nc1 [Example 190, tert-butyl (3-(((2′-amino-5-(dimethylcarbamoyl)-[2,3′:5′,4″-terpyridin]-2″-yl)methyl)carbamoyl)phenyl)carbamate]	< 5.30	5.30 to 5.60	< 5.30
Cn1ncc2c(-c3cncc(-c4ccc(N5CCCC5=O)cc4)c3)cn(CC#N)c(=O)c21 [Example 160, 2-(1-methyl-7-oxo-4-(5-(4-(2-oxopyrrolidin-1-yl)phenyl)pyridin-3-yl)-1,7-dihydro-6H-pyrazolo[3,4-c]pyridin-6-yl)acetonitrile]	6.00 to 7.00	6.00 to 7.00	6.00 to 7.00
Cn1cc(-c2cncc(-c3ccc(N4CCCC4=O)cc3)c2)ccc1=O [Example 37, 1-methyl-5′-(4-(2-oxopyrrolidin-1-yl)phenyl)-[3,3′-bipyridin]-6(1H)-one]	< 5.30	5.30 to 5.60	< 5.30
COc1ncc(-c2cnc(N)c(-c3ccc(N4CCCC4=O)cc3)c2)c2cn[nH]c12 [Example 258, 1-(4-(2-amino-5-(7-methoxy-2H-pyrazolo[3,4-c]pyridin-4-yl)pyridin-3-yl)phenyl)pyrrolidin-2-one]	6.00 to 7.00	7.00 to 8.30	6.00 to 7.00
O=C1CCCN1c1ccc(-c2cncc(-c3c[nH]c4ncccc34)c2)cc1 [Example 28, 1-(4-(5-(1H-pyrrolo[2,3-b]pyridin-3-yl)pyridin-3-yl)phenyl)pyrrolidin-2-one]	6.00 to 7.00	7.00 to 8.30	6.00 to 7.00

Second part, the compound after the results:

pIC50 (GST tagged PIP4KtypeIIA)	pIC50 [1]	pIC50 (GST tagged PIP4KtypeIIB)	SMILES
6.00 to 7.00	7.00 to 8.30	5.60 to 6.00	Cn1cc(-c2cncnc2)c2cc(-c3cncc(-c4ccc(N5CCCC5=O)cc4)c3)cnc21 [Example 176, 1-(4-(5-(1-methyl-3-(pyrimidin-5-yl)-1H-pyrrolo[2,3-b]pyridin-5-yl)pyridin-3-yl)phenyl)pyrrolidin-2-one]
6.00 to 7.00	6.00 to 7.00	6.00 to 7.00	O=C1CCCN1c1ccc(-c2cncc(-n3cnc4ccccc43)c2)cc1 [Example 177, 1-(4-(5-(1H-benzo[d]imidazol-1-yl)pyridin-3-yl)phenyl)pyrrolidin-2-one]
7.00 to 8.00	7.00 to 8.30	7.00 to 8.00	Cn1ncc2c(-c3cnc(N)c(-c4ccc(N5CCCC5=O)cc4)c3)cn(CC3CCOCC3)c(=O)c21 [Example 92, 4-(6-amino-5-(4-(2-oxopyrrolidin-1-yl)phenyl)pyridin-3-yl)-1-methyl-6-((tetrahydro-2H-pyran-4-yl)methyl)-1,6-dihydro-7H-pyrazolo[3,4-c]pyridin-7-one]
7.00 to 8.00	7.00 to 8.30	8.00 to 9.00	Nc1ncc(-c2ccnc3c2cc2n3CCN(CC3CC3)C2=O)cc1-c1ccc(N2CCCC2=O)cc1 [Example 88, 4-(6-amino-5-(4-(2-oxopyrrolidin-1-yl)phenyl)pyridin-3-yl)-7-(cyclopropylmethyl)-8,9-dihydropyrido[3′,2′:4,5]pyrrolo[1,2-a]pyrazin-6(7H)-one]
7.00 to 8.00	7.00 to 8.30	7.00 to 8.00	O=C(NCC1CC1)c1cc2c(-c3cncc(-c4ccc(N5CCCC5=O)cc4)c3)ccnc2o1 [Example 79, N-(cyclopropylmethyl)-4-(5-(4-(2-oxopyrrolidin-1-yl)phenyl)pyridin-3-yl)furo[2,3-b]pyridine-2-carboxamide]
6.00 to 7.00	7.00 to 8.30	6.00 to 7.00	CN(C)C(=O)c1cnc2[nH]cc(-c3cncc(-c4ccc(N5CCCC5=O)cc4)c3)c2c1 [Example 72, N,N-dimethyl-3-(5-(4-(2-oxopyrrolidin-1-yl)phenyl)pyridin-3-yl)-1H-pyrrolo[2,3-b]pyridine-5-carboxamide]
8.00 to 9.00	6.00 to 7.00	5.30 to 5.60	CN(C)C(=O)c1ccc(-c2cc(-c3cnc4c(c3)c(-c3cncs3)cn4C)cnc2N)nc1 [Example 125, 2′-amino-N,N-dimethyl-5′-(1-methyl-3-(thiazol-5-yl)-1H-pyrrolo[2,3-b]pyridin-5-yl)-[2,3′-bipyridine]-5-carboxamide]
6.00 to 7.00	7.00 to 8.30	6.00 to 7.00	Cn1ncc2c(-c3cncc(-c4ccc(N5CCCC5=O)cc4)c3)ccnc21 [Example 218, 1-(4-(5-(1-methyl-1H-pyrazolo[3,4-b]pyridin-4-yl)pyridin-3-yl)phenyl)pyrrolidin-2-one]
6.00 to 7.00	6.00 to 7.00	6.00 to 7.00	COc1ncc(-c2cncc(-c3ccc(N4CCCC4=O)cc3)c2)c2cn(C)nc12 [Example 157, 1-[4-[5-(7-methoxy-2-methyl-pyrazolo[3,4-c]pyridin-4-yl)-3-pyridyl]phenyl]pyrrolidin-2-one]
7.00 to 8.00	7.00 to 8.30	7.00 to 8.00	O=C1CCCN1c1ccc(-c2cncc(-c3cc(Cl)nc4n[nH]cc34)c2)cc1 [Example 224, 1-(4-(5-(6-chloro-2H-pyrazolo[3,4-b]pyridin-4-yl)pyridin-3-yl)phenyl)pyrrolidin-2-one]
7.00 to 8.00	7.00 to 8.30	7.00 to 8.00	COC(=O)c1cc2c(-c3cncc(-c4ccc(N5CCCC5=O)cc4)c3)ccnc2o1 [Example 165, methyl 4-(5-(4-(2-oxopyrrolidin-1-yl)phenyl)pyridin-3-yl)furo[2,3-b]pyridine-2-carboxylate]
